Test system: HCV Huh-luc/neo-ET replicon cells
Experiment: Luciferase-Based HCV Replicon Assay (EC50 (1b))
Format: cell-based
Conditions: Hepatitis C virus, 72 hours exposure, luciferase activity
Procedure, shortened: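 EC50 (1b) derived from % inhibition of luciferase signal relative to untreated cells, background set by 100 nM BILN-2061 (protease inhibitor). Triplicate dose series added to replicon cells 24 h post-seeding; luminescence measured after 72 h compound exposure.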

Row | SMILES | EC50
1 | CS(=O)(=O)NCc1csc2c1S(=O)(=O)N=C(C1=C(O)C3CCCCC3N(Cc3ccc(F)c(F)c3)C1=O)N2 (racemic) [Example 134, (rac-cis)-N-{3-[1-(3,4-Difluoro-benzyl)-4-hydroxy-2-oxo-1,2,4a,5,6,7,8,8a-octahydro-quinolin-3-yl]-1,1-dioxo-1,4-dihydro-1λ^6-thieno[2,3-e][1,2,4]thiadiazin-7-ylmethyl}-methanesulfonamide] | > 1000 nM
2 | CS(=O)(=O)NCc1csc2c1S(=O)(=O)N=C(C1=C(O)C3CCCCC3N(Cc3ccsc3)C1=O)N2 (racemic) [Example 135, (rac-cis)-N-[3-(4-Hydroxy-2-oxo-1-thiophen-3-ylmethyl-1,2,4a,5,6,7,8,8a-octahydro-quinolin-3-yl)-1,1-dioxo-1,4-dihydro-1λ^6-thieno[2,3-e][1,2,4]thiadiazin-7-ylmethyl]-methanesulfonamide] | > 1000 nM
3 | CS(=O)(=O)NCc1csc2c1S(=O)(=O)N=C(C1=C(O)C3CCCCCC3N(Cc3ccccc3)C1=O)N2 (racemic) [Example 136, (rac-cis)-N-[3-(1-Benzyl-4-hydroxy-2-oxo-2,4a,5,6,7,8,9,9a-octahydro-1H-cyclohepta[b]pyridin-3-yl)-1,1-dioxo-1,4-dihydro-1λ^6-thieno[2,3-e][1,2,4]thiadiazin-7-ylmethyl]-methanesulfonamide] | 20 to 100 nM
4 | CS(=O)(=O)NCc1csc2c1S(=O)(=O)N=C(C1=C(O)C3CCCCCC3N(Cc3ccc(F)c(F)c3)C1=O)N2 (racemic) [Example 137, (rac-cis)-N-{3-[1-(3,4-Difluoro-benzyl)-4-hydroxy-2-oxo-2,4a,5,6,7,8,9,9a-octahydro-1H-cyclohepta[b]pyridin-3-yl]-1,1-dioxo-1,4-dihydro-1λ^6-thieno[2,3-e][1,2,4]thiadiazin-7-ylmethyl}-methanesulfonamide] | 100 to 1000 nM
5 | CC(C)CCN1C(=O)C(C2=NS(=O)(=O)c3c(CNS(C)(=O)=O)csc3N2)=C(O)C2CCCCCC21 (racemic) [Example 138, (rac-cis)-N-{3-[4-Hydroxy-1-(3-methyl-butyl)-2-oxo-2,4a,5,6,7,8,9,9a-octahydro-1H-cyclohepta[b]pyridin-3-yl]-1,1-dioxo-1,4-dihydro-1λ^6-thieno[2,3-e][1,2,4]thiadiazin-7-ylmethyl}-methanesulfonamide] | 20 to 100 nM
6 | Cc1cc(CN2C(=O)C(C3=NS(=O)(=O)c4c(CNS(C)(=O)=O)csc4N3)=C(O)C3CCCCCC32)ccc1F (racemic) [Example 139, (rac-cis)-N-{3-[1-(4-Fluoro-3-methyl-benzyl)-4-hydroxy-2-oxo-2,4a,5,6,7,8,9,9a-octahydro-1H-cyclohepta[b]pyridin-3-yl]-1,1-dioxo-1,4-dihydro-1λ^6-thieno[2,3-e][1,2,4]thiadiazin-7-ylmethyl}-methanesulfonamide] | > 1000 nM
7 | CS(=O)(=O)NCc1csc2c1S(=O)(=O)N=C(C1=C(O)C3CCCCCC3N(Cc3cc(F)c(F)c(F)c3)C1=O)N2 (racemic) [Example 140, (rac-cis)-N-{3-[4-Hydroxy-2-oxo-1-(3,4,5-trifluoro-benzyl)-2,4a,5,6,7,8,9,9a-octahydro-1H-cyclohepta[b]pyridin-3-yl]-1,1-dioxo-1,4-dihydro-1λ^6-thieno[2,3-e][1,2,4]thiadiazin-7-ylmethyl}-methanesulfonamide] | > 1000 nM
8 | CS(=O)(=O)NCc1csc2c1S(=O)(=O)N=C(C1=C(O)C3CCCCCC3N(Cc3ccsc3)C1=O)N2 (racemic) [Example 141, (rac-cis)-N-[3-(4-Hydroxy-2-oxo-1-thiophen-3-ylmethyl-2,4a,5,6,7,8,9,9a-octahydro-1H-cyclohepta[b]pyridin-3-yl)-1,1-dioxo-1,4-dihydro-1λ^6-thieno[2,3-e][1,2,4]thiadiazin-7-ylmethyl]-methanesulfonamide] | > 1000 nM
9 | CS(=O)(=O)NCc1csc2c1S(=O)(=O)N=C(C1=C(O)C3C4CCCC(CC4)C3N(Cc3ccc(F)cc3)C1=O)N2 (racemic) [Example 142, (rac-di-exo)-N-{3-[3-(4-Fluoro-benzyl)-6-hydroxy-4-oxo-3-aza-tricyclo[6.3.2.0^2,7]tridec-5-en-5-yl]-1,1-dioxo-1,4-dihydro-1λ^6-thieno[2,3-e][1,2,4]thiadiazin-7-ylmethyl}-methanesulfonamide] | 20 to 100 nM
10 | CS(=O)(=O)NCc1csc2c1S(=O)(=O)N=C(C1=C(O)[C@@H]3[C@H]4CC[C@H](C4)[C@@H]3N(Cc3ccc(F)cc3)C1=O)N2 [Example 1, (1R,2S,7R,8S)—N-{3-[3-(4-Fluoro-benzyl)-6-hydroxy-4-oxo-3-aza-tricyclo[6.2.1.0^2,7]undec-5-en-5-yl]-1,1-dioxo-1,4-dihydro-1λ^6-thieno[2,3-e][1,2,4]thiadiazin-7-ylmethyl}-methanesulfonamide] | ≤ 5 nM
11 | CS(=O)(=O)NCc1ccc2c(c1)S(=O)(=O)N=C(C1=C(O)[C@@H]3[C@H]4CC[C@H](C4)[C@@H]3N(Cc3ccc(F)cc3)C1=O)N2 [Example 3, N-{3-[(1R,2S,7R,8S)-3-(4-Fluoro-benzyl)-6-hydroxy-4-oxo-3-aza-tricyclo[6.2.1.0^2,7]undec-5-en-5-yl]-1,1-dioxo-1,4-dihydro-1λ^6-benzo[1,2,4]thiadiazin-7-ylmethyl}-methanesulfonamide] | 100 to 1000 nM
12 | CS(=O)(=O)NCc1csc2c1S(=O)(=O)N=C(C1=C(O)C3(CC3)CN(Cc3ccc(F)cc3)C1=O)N2 [Example 11, N-{3-[5-(4-Fluoro-benzyl)-8-hydroxy-6-oxo-5-aza-spiro[2.5]oct-7-en-7-yl]-1,1-dioxo-1,4-dihydro-1λ^6-thieno[2,3-e][1,2,4]thiadiazin-7-ylmethyl}-methanesulfonamide] | > 1000 nM
13 | CS(=O)(=O)NCc1csc2c1S(=O)(=O)N=C(C1=C(O)[C@@H]3[C@H]4CC[C@H](C4)[C@@H]3N(CCC3CCC3)C1=O)N2 [Example 26, N-{3-[(1R,2S,7R,8S)-3-(2-Cyclobutyl-ethyl)-6-hydroxy-4-oxo-3-aza-tricyclo[6.2.1.0^2,7]undec-5-en-5-yl]-1,1-dioxo-1,4-dihydro-1λ^6-thieno[2,3-e][1,2,4]thiadiazin-7-ylmethyl}-methanesulfonamide] | 20 to 100 nM
14 | CC(C)CCn1nc(-c2cccs2)c(O)c(C2=NS(=O)(=O)c3c(CNS(C)(=O)=O)csc3N2)c1=O [Example 28, N-{3-[5-Hydroxy-2-(3-methyl-butyl)-3-oxo-6-thiophen-2-yl-2,3-dihydro-pyridazin-4-yl]-1,1-dioxo-1,4-dihydro-1λ^6-thieno[2,3-e][1,2,4]thiadiazin-7-ylmethyl}-methanesulfonamide] | 100 to 1000 nM
15 | CS(=O)(=O)NCc1csc2c1S(=O)(=O)N=C(C1=C(O)[C@@H]3[C@H]4CC[C@H](C4)[C@@H]3N(CC3(C(F)(F)F)CC3)C1=O)N2 [Example 29, N-{3-[(1R,2S,7R,8S)-6-Hydroxy-4-oxo-3-(1-trifluoromethyl-cyclopropylmethyl)-3-aza-tricyclo[6.2.1.0^2,7]undec-5-en-5-yl]-1,1-dioxo-1,4-dihydro-1λ^6-thieno[2,3-e][1,2,4]thiadiazin-7-ylmethyl}-methanesulfonamide] | 5 to 20 nM
16 | CS(=O)(=O)NCc1csc2c1S(=O)(=O)N=C(C1=C(O)[C@@H]3[C@H]4CC[C@H](C4)[C@@H]3N(CCC3CCCC3)C1=O)N2 [Example 30, N-{3-[(1R,2S,7R,8S)-3-(2-Cyclopentyl-ethyl)-6-hydroxy-4-oxo-3-aza-tricyclo[6.2.1.0^2,7]undec-5-en-5-yl]-1,1-dioxo-1,4-dihydro-1λ^6-thieno[2,3-e][1,2,4]thiadiazin-7-ylmethyl}-methanesulfonamide] | 20 to 100 nM
17 | CC(C)CCC1(C)CN(c2ccccc2)C(=O)C(C2=NS(=O)(=O)c3c(CNS(C)(=O)=O)csc3N2)=C1O (stereo not drawn) [Example 31, N-{3-[4-Hydroxy-5-methyl-5-(3-methyl-butyl)-2-oxo-1-phenyl-1,2,5,6-tetrahydro-pyridin-3-yl]-1,1-dioxo-1,4-dihydro-1λ^6-thieno[2,3-e][1,2,4]thiadiazin-7-ylmethyl}-methanesulfonamide] | > 1000 nM
18 | O=C1C(C2=NS(=O)(=O)c3c(CNS(=O)(=O)C4CC4)csc3N2)=C(O)[C@@H]2[C@H]3CC[C@H](C3)[C@@H]2N1Cc1ccc(F)cc1 [Example 33, Cyclopropanesulfonic acid {3-[(1R,2S,7R,8S)-3-(4-fluoro-benzyl)-6-hydroxy-4-oxo-3-aza-tricyclo[6.2.1.0^2,7]undec-5-en-5-yl]-1,1-dioxo-1,4-dihydro-1λ^6-thieno[2,3-e][1,2,4]thiadiazin-7-ylmethyl}-amide] | 5 to 20 nM
19 | NS(=O)(=O)NCc1csc2c1S(=O)(=O)N=C(C1=C(O)[C@@H]3[C@H]4CC[C@H](C4)[C@@H]3N(Cc3ccc(F)cc3)C1=O)N2 [Example 34, N-{3-[(1R,2S,7R,8S)-3-(4-Fluoro-benzyl)-6-hydroxy-4-oxo-3-aza-tricyclo[6.2.1.0^2,7]undec-5-en-5-yl]-1,1-dioxo-1,4-dihydro-1λ^6-thieno[2,3-e][1,2,4]thiadiazin-7-ylmethyl}-sulfamide] | 100 to 1000 nM
20 | CC(=O)NCc1csc2c1S(=O)(=O)N=C(C1=C(O)[C@@H]3[C@H]4CC[C@H](C4)[C@@H]3N(Cc3ccc(F)cc3)C1=O)N2 [Example 35, N-{3-[(1R,2S,7R,8S)-3-(4-Fluoro-benzyl)-6-hydroxy-4-oxo-3-aza-tricyclo[6.2.1.0^2,7]undec-5-en-5-yl]-1,1-dioxo-1,4-dihydro-1λ^6-thieno[2,3-e][1,2,4]thiadiazin-7-ylmethyl}-acetamide] | 5 to 20 nM
21 | COc1cc(CN2C(=O)C(C3=NS(=O)(=O)c4c(CNS(C)(=O)=O)csc4N3)=C(O)[C@@H]3C4CCC(CC4)[C@@H]32)ccc1F [Example 36, N-{3-[(2S,7R)-3-(4-Fluoro-3-methoxy-benzyl)-6-hydroxy-4-oxo-3-aza-tricyclo[6.2.2.0^2,7]dodec-5-en-5-yl]-1,1-dioxo-1,4-dihydro-1λ^6-thieno[2,3-e][1,2,4]thiadiazin-7-ylmethyl}-methanesulfonamide] | ≤ 5 nM
